Data reported in patent US6368831B1, “Treatment of hyperproliferative disorders” (Childrens Hospital Los Angeles, priority 1998, dated 2002).

Tests used:
Type in all cases: cell-based, human
[1] = tested on: CHLA-90 neuroblastoma cell line; test: Ceramide assay, CHLA-90; conditions: CHLA-90 (drug resistant); 10 μM fenretinide; 20% O2
Protocol: The ceramide assay is carried out as follows. 500,000 neuroblastoma cells/well are replicate plated in six-well tissue culture plates and allowed to attach overnight. Tritiated (3H)-palmitic acid (a lipid precursor) is added to 1 microcure/cc and fenretinide added to a final concentration of 10 uM. Control cells receive tritiated label but no drug. At the indicated time, cells are harvested from triplicate wells, washed, and lipids extracted with methanol, acetic acid, water, and chloroform. The organic layer (containing the tritium label incorporated into lipids) is isolated and dried down by a nitrogen stream. The lipid sample is dissolved in chloroform: methanol and 10% of each sample assayed to estimate the total tritium in the lipid sample. The lipids in sample fractions, together with unlabeled ceramide standards, are then separated by thin layer chromatography and the plates developed by iodine vapor. The region of the plate corresponding to the ceramide standard is scraped and the tritium of the co-migrating sample ceramide is measured. Total sample ceramide is then expressed as percent tritium label in ceramide versus tritium in total lipid. […]

[2] = tested on: MCF7/GCS cells; test: DIMSCAN cytotoxicity assay, MCF7/GCS tet OFF vs tet ON; conditions: 96 hours, P<0.005 at >6 μM HPR, safingol 0-4 μM
Source text: We have shown that HPR generates ceramide in neuroblastoma tumor cell lines in a dose- and time-depenent manner (B. Maurer et al., J. Natl. Cancer Inst. (1999)(in press)). Glucosylceramide (GC) is a nontoxic metabolite of ceramide. Ceramide is converted into glucosylceramide by the action of glucosylceramide synthase (GCS). Glucosylceramide synthase (GCS) has been transfected into human MCF7 breast cancer cells in a tetracycline-inducible expression construct in the MCF7/GCS cell line (Y. Liu et al., J. Biol. Chem. 274:1140-46 (1999)). […] We have exposed MCF7/GCS cells to HPR, safingol and HPR+safingol in the absence, and in the presence, of doxycycline.
Methods. MCF7/GCS cells were plated and incubated in RPMI medium with 10% fetal bovine serum and 200 microgram/ml Hygromycin B (tet OFF) for DIMSCAN cytotoxicity assays as previously described. To increase GCS expression, MCF7/GCS cells were also incubated in the above medium with 3 microgram/ml doxycycline (tet ON) for three days prior to replating them for DIMSCAN cytotoxicity assay. DIMSCAN assays with doxycycline-induced (tet ON) cells also included 3 microgram/ml doxycycline in the medium. Both “tet OFF” and “tet ON” MCF7/GCS cells were exposed to HPR, safingol and HPR+safingol (3:1 molar ratio) for 96 hours and assayed for survival fraction by DIMSCAN as previously described.

[3] = tested on: CHLA-90 cells; test: Morphological assessment of apoptosis and necrosis (Hoechst 33342 / propidium iodide), CHLA-90
Protocol: Methods. To determine the manner in which 4-HPR or HPR+safingol induced cell death in neuroblastoma cells, morphological evidence of apoptosis and/or necrosis was assessed in CHLA-90 cells in the presence or absence of a specific as inhibitor of apoptosis, the neural cell-penetrant, pan-caspase enzyme inhibitor, BOC-d-fink (Enzyme Systems Products, Livermore, Calif.). […] CHLA-90 cells were plated in duplicate in whole medium in Lab Tek chamber slides (Nunc, Naperville, Ill.), allowed to attach for 24 hours, and then treated in the presence or absence of BOC-d-fink (40 μM) for one hour prior to treatment with HPR (10 μM). Control cells were treated with vehicle solvents of 0. 1% ethanol (4-HPR) and/or 0.2% DMSO (BOC-d-fink). Morphological features of apoptosis (DNA condensation and/or apoptotic bodies) were visualized in undetached cells at +24 or +48 hours using blue nuclear fluorescence induced by the supravital DNA stain Hoechst 33342 (10 μg/ml for 30 mins at 37° C.), while necrotic cells and advanced apoptotic cells were recognized by red fluorescent staining with propidium iodide (0.5 μM/ml). Red fluorescently-staining cells with condensed nuclear remnants were scored as apoptotic cells. […] Mutiple random fields of cells (of ˜100-500 cells each) were counted and photographed for viable cells, apoptotic cells, and necrotic cells. […]

Structure (SMILES): CC1=C(/C=C/C(C)=C/C=C/C(C)=C/C(=O)Nc2ccc(O)cc2)C(C)(C)CCC1 [HPR, all-trans-N-(4-hydroxyphenyl)retinamide]
- ceramide generation [1]: generate ceramide
- change of cytotoxicity in tet ON (doxycycline, GCS induced) compared to tet OFF cells [2]: significantly decreased
- morphological nuclear changes indicative of apoptosis ([3]; HPR 10 μM alone, relative to controls (P=0.006)): induced significant apoptosis
- morphological evidence of necrosis ([3]; HPR 10 μM, relative to controls (P=0.002)): significant morphological evidence of necrosis
